These results are taken from PMC7228129, “Evaluation of Developmental Toxicity, Developmental Neurotoxicity, and Tissue Dose in Zebrafish Exposed to GenX and Other PFAS” (Environmental Health Perspectives, 2020).

The nature of the data set: Tissue analysis (internal tissue dose of parent PFAS, bioconcentration factor). Format: in vivo, Danio rerio. The following applies: for Parent compound in fish tissue at 6 dpf: Study 1, daily exposure 0–5 dpf; for Parent compound in fish tissue at 6 dpf / BCFdry / concentration at 6 dpf: 0.4% DMSO; for Bioaccumulation ranking: among chemicals assessed, from BCF values; for BCFdry: 6-d zebrafish assay; for concentration at 6 dpf: zebrafish (Danio rerio), whole larvae (pools of 10, homogenised), other: waterborne exposure in the well medium, 6 dpf larvae, dry weight 44 μg per larva, read-out: Measured tissue dose; for Dil Corrected Reported Conc. (fMole/larvae), measured tissue concentration: zebrafish larvae, replicate samples per experiment/plate. On the procedure: Zebrafish were exposed to 25.1, 44.8, or 80.0μM ADONA, PFOA, PFESA1, or PFHxA, 14.0, 25.1, or 44.8μM PFHxS, or 1.0, 1.8, or 3.1μM PFOS, or 0.4% DMSO. The highest concentration evaluated was the no observed effect concentration (NOEC) determined in Study 1. In Study 2, zebrafish were exposed to 25.1, 44.8, or 80.0μM GenX Free Acid or 0.4% DMSO. According to the previously described microtiter plate inclusion criterion, 15/15 plates were included in the study. Larvae were anesthetized by rapid cooling in chilled 10% HBSS. Groups of 10 anesthetized larvae were pooled to comprise one biological replicate ( n=4 ) in 500μL of 10% HBSS, flash frozen in liquid nitrogen, and stored at −80°C . In the case of ADONA, n=5 .
Tissue samples were prepared by protein precipitation. Flash frozen samples, consisting of pools of ten 6-dpf zebrafish larvae, were homogenized using ∼100mg of 1.0-mm diameter zirconia/silica beads and a Fast-Prep-24™ homogenizer (MP Biomedicals) in 100μL 0.1M formic acid fortified with the surrogate (i.e., PFNA). Protein was precipitated from the homogenate with 400μL of acetonitrile containing internal standards and separated by centrifugation at 14,000 rpm for 15 min at 4°C. Fifty microliters of the extract was diluted with 200μL aqueous 0.4 mM ammonium formate in the LC vial for analysis. Standards and samples were analyzed with Vanquish UPLC and Orbitrap Fusion mass spectrometer (Thermo Electron) operated in negative ESI mode. ESI source conditions were optimized for the [M-H]^− ion of PFAS as follows: spray voltage −3.5 kV , sheath gas 25 au (arbitrary units), aux gas 6 au, sweep gas 0 au, ion transfer tube temperature 300°C, and vaporizer temperature […]. High-resolution accurate mass (HRAM) MS1 scans were collected with the following parameters: detector type orbitrap, orbitrap resolution 30,000 full width at half maximum (FWHM), normal mass range, Use quadrapole isolation=true , scan range 70–700m/z , radio frequency (RF) lens 60%, automatic gain control (AGC) target 4.00×10^5 , max injection time of 50 ms , 1 microscan, data type set to profile, negative polarity, and source fragmentation disabled. Data-dependent orbitrap MSMS (ddMS2-OT) scans were collected for the [M-H]^− ion [ M-H-CO2 for GenX]^– using a target mass list for the eight PFAS and PFNA surrogate for identity confirmation. The apex detection was set to an expected peak width of 2 s at FWHM and desired apex peak window of 30%. The dynamic exclusion parameters were set to exclude after a one-time, 60-s exclusion duration, low and high mass tolerances of 10 ppm , and exclude isotope was set to true. The intensity threshold for collecting an MSMS scan was set to 2.5E+04 . Fragmentation was done by high-energy collisional dissociation (HCD). The ddMS2-OT scans were collected with the following parameters: orbitrap isolation mode, isolation window of 1.6m/z , isolation offset off, stepped HCD collision energy of 30%±10% , scan range of auto mass-to-charge ratio normal, orbitrap resolution of 30,000 FWHM, first mass 75m/z , max injection time of […], AGC target 5.00×10^4 , inject ions from available parallelizable time set to true, max injection time of 54 ms, 1 microscan, and data type set to centroid. UPLC separation was achieved using ACQUITY UPLC BEH C18 Column, 130Å , 1.7μM , 2.1mm×50mm (Waters Corp P/N 186,002,350) at 50°C with gradient elution at a flow rate of 300μL/min using 0.4 mM ammonium formate in acetonitrile and water with a 10-μL injection. Data collection, integration, calibration, and quantitation were performed using Xcalibur software (version 4.1; Thermo Electron). Concentration for each PFAS analyte was determined by internal standard technique using isotopically labeled internal standards and matrix-matched calibration standards. Quantitative analysis was performed using high-resolution MS1-extracted ion chromatograms. […]

The structures appear in SMILES notation. Values joined by “and” are separate entries in the source; they are usually repeats but may differ in a detail not shown here. Equal entries are not always repeated. Where two headings read alike, the source gives them in different places.

`O=C(O)C(F)(F)C(F)OC(F)(F)C(F)(F)C(F)(F)OC(F)(F)F` (stereo not drawn) [ADONA, 4,8-Dioxa-3H-perfluorononanoate]: the “Parent compound in fish tissue at 6 dpf” value is “detectable levels” and the “Bioaccumulation ranking” value is on record as “least bioaccumulative”. Also, the BCFdry (nominal 25.1 μM) came out at 0.95 L/kg. Besides, the BCFdry (nominal 44.8 μM) was 0.94 L/kg. Besides, the BCFdry (nominal 80.0 μM) was 0.56 L/kg. Under “nominal 25.1 μM daily 0–5 dpf”, the concentration at 6 dpf is 9490 ± 3100 ng/g. Where the note is “nominal 44.8 μM daily 0–5 dpf”, the concentration at 6 dpf stood at 16000 ± 6290 ng/g. The concentration at 6 dpf (nominal 80.0 μM daily 0–5 dpf) stood at 14900 ± 3110 ng/g. Besides, the “Dil Corrected Reported Conc. (fMole/larvae), measured tissue concentration” value (exposure Concentration 25.1 µM) was 687.994 fMole/larvae and 814.543 fMole/larvae and 1674.31 fMole/larvae and 986.423 fMole/larvae and 1056.18 fMole/larvae. Besides, the “Dil Corrected Reported Conc. (fMole/larvae), measured tissue concentration” value (exposure Concentration 44.8 µM) is 1721.39 fMole/larvae and 1579.99 fMole/larvae and 1307.54 fMole/larvae and 1119.74 fMole/larvae and 3082.15 fMole/larvae. Besides, the “Dil Corrected Reported Conc. (fMole/larvae), measured tissue concentration” value (exposure Concentration 80 µM) was 1324.81 fMole/larvae and 2040.26 fMole/larvae and 1665.47 fMole/larvae and 1967.75 fMole/larvae and 1175.25 fMole/larvae.
`O=S(=O)(O)C(F)(F)C(F)(F)C(F)(F)C(F)(F)C(F)(F)C(F)(F)C(F)(F)C(F)(F)F` [PFOS, Perfluorooctanesulfonic acid]: the “Bioaccumulation ranking” value was “most bioaccumulative”. For the same compound, for the setting “nominal 1.0 μM”, the BCFdry is 1,374.89 L/kg. Moreover, the BCFdry (nominal 1.8 μM) is 1,348.46 L/kg. The BCFdry (nominal 3.1 μM) was 684.03 L/kg. Besides, for the setting “nominal 1.0 μM daily 0–5 dpf”, the concentration at 6 dpf is 220000 ± 109000 ng/g. For the same compound, where the note is “nominal 1.8 μM daily 0–5 dpf”, the concentration at 6 dpf was found to be 422000 ± 183000 ng/g. In addition, the concentration at 6 dpf (nominal 3.1 μM daily 0–5 dpf) turned out to be 678000 ± 53500 ng/g. Moreover, the “Dil Corrected Reported Conc. (fMole/larvae), measured tissue concentration” value (exposure Concentration 0.986 µM) is 29113.1 fMole/larvae and 7862.61 fMole/larvae and 11812.2 fMole/larvae and 28665.6 fMole/larvae. Further, the “Dil Corrected Reported Conc. (fMole/larvae), measured tissue concentration” value (exposure Concentration 1.76 µM) is 24142 fMole/larvae and 18963.9 fMole/larvae and 47666.3 fMole/larvae and 57759 fMole/larvae. Further, the “Dil Corrected Reported Conc. (fMole/larvae), measured tissue concentration” value (exposure Concentration 3.144 µM) was 57262.1 fMole/larvae and 67321.8 fMole/larvae and 54771.6 fMole/larvae and 59188.7 fMole/larvae.
As to `O=C(O)C(F)(F)C(F)(F)C(F)(F)C(F)(F)C(F)(F)C(F)(F)C(F)(F)F` [PFOA, Perfluoro-n-octanoic acid], the “Parent compound in fish tissue at 6 dpf” value is listed as “detectable levels”. Moreover, the BCFdry (nominal 25.1 μM) is recorded as 11.68 L/kg. Besides, the BCFdry (nominal 44.8 μM) stood at 6.52 L/kg. For the same compound, under “nominal 80.0 μM”, the BCFdry was 5.17 L/kg. The concentration at 6 dpf (nominal 25.1 μM daily 0–5 dpf) amounted to 116000 ± 25200 ng/g. For the same compound, the concentration at 6 dpf (nominal 44.8 μM daily 0–5 dpf) stood at 124000 ± 29900 ng/g. In addition, the concentration at 6 dpf (nominal 80.0 μM daily 0–5 dpf) worked out at 171000 ± 41100 ng/g. Moreover, the “Dil Corrected Reported Conc. (fMole/larvae), measured tissue concentration” value (exposure Concentration 25.1 µM) is 16735.5 fMole/larvae and 10378.2 fMole/larvae and 12074.8 fMole/larvae and 10012 fMole/larvae. For the same compound, the “Dil Corrected Reported Conc. (fMole/larvae), measured tissue concentration” value (exposure Concentration 44.8 µM) is 10919.7 fMole/larvae and 9223.5 fMole/larvae and 16062.6 fMole/larvae and 16554.8 fMole/larvae. Also, the “Dil Corrected Reported Conc. (fMole/larvae), measured tissue concentration” value (exposure Concentration 80 µM) is 21852.9 fMole/larvae and 22967.7 fMole/larvae and 14850.1 fMole/larvae and 12804.3 fMole/larvae.
`O=S(=O)(O)C(F)(F)C(F)(F)OC(F)(C(F)(F)F)C(F)(F)OC(F)=C(F)F` (stereo not drawn) [PFESA1, Perfluoro-3,6-dioxa-4-methyl-7-octene-1-sulfonic acid]: the “Parent compound in fish tissue at 6 dpf” value is recorded as “detectable levels” and the “Bioaccumulation ranking” value was “least bioaccumulative”. Moreover, the BCFdry (nominal 25.1 μM) was 3.09 L/kg. In addition, the BCFdry (nominal 44.8 μM) was 2.62 L/kg. Moreover, the BCFdry (nominal 80.0 μM) is on record as 1.44 L/kg. For the same compound, the concentration at 6 dpf (nominal 25.1 μM daily 0–5 dpf) was 23700 ± 17500 ng/g. For the same compound, for the setting “nominal 44.8 μM daily 0–5 dpf”, the concentration at 6 dpf was determined as 37000 ± 17400 ng/g. In addition, the concentration at 6 dpf (nominal 80.0 μM daily 0–5 dpf) worked out at 43200 ± 4840 ng/g. In addition, the “Dil Corrected Reported Conc. (fMole/larvae), measured tissue concentration” value (exposure Concentration 25.1 µM) is 4.79E+03 fMole/larvae and 1603 fMole/larvae and 2911 fMole/larvae and 78 fMole/larvae. For the setting “exposure Concentration 44.8 µM”, the “Dil Corrected Reported Conc. (fMole/larvae), measured tissue concentration” value was 2778 fMole/larvae and 2495 fMole/larvae. Besides, the “Dil Corrected Reported Conc. (fMole/larvae), measured tissue concentration” value (exposure Concentration 80 µM) is 3514 fMole/larvae and 4409 fMole/larvae.
For the compound `O=S(=O)(O)C(F)(F)C(F)(F)C(F)(F)C(F)(F)C(F)(F)C(F)(F)F` [PFHxS, Perfluorohexanesulfonic acid], the BCFdry is, setting by setting: (nominal 14.0 μM) 11.82 L/kg; (nominal 25.1 μM) 8.01 L/kg; (nominal 44.8 μM) 9.30 L/kg. Moreover, the concentration at 6 dpf runs as follows: (nominal 14.0 μM daily 0–5 dpf) 107000 ± 50100 ng/g; (nominal 25.1 μM daily 0–5 dpf) 129000 ± 31500 ng/g; (nominal 44.8 μM daily 0–5 dpf) 261000 ± 57200 ng/g. In addition, the “Dil Corrected Reported Conc. (fMole/larvae), measured tissue concentration” value by setting is: (exposure Concentration 14 µM) 8.83E+03 fMole/larvae and 1.94E+04 fMole/larvae and 6.95E+03 fMole/larvae and 7.88E+03 fMole/larvae; (exposure Concentration 25.1 µM) 1.35E+04 fMole/larvae and 1.76E+04 fMole/larvae and 8.93E+03 fMole/larvae and 1.16E+04 fMole/larvae; (exposure Concentration 44.8 µM) 2.76E+04 fMole/larvae and 3.50E+04 fMole/larvae and 2.15E+04 fMole/larvae and 2.07E+04 fMole/larvae.
